Experimental data reported in US8236789B2, “1-adamantyl azetidin-2-one derivatives and drugs containing same” (Kowa Company, Ltd., priority 2008, dated 2012).

Assays:
human 11β-HSD1 = target: T1, human 11β-HSD1 (Homo sapiens, UniProt P28845); assay: Enzyme inhibitory activity assay, lysate of HEK293 cells stably expressing human 11β-HSD1, cortisol by competitive ELISA; assay type: biochemical; conditions: Table 1; cell lysate, 100 nmol/L cortisone, NADPH, 37° C. 1 hour; read-out: in vitro assay (IC50 uM) h HSD1
T1 construct: expressed in transfected cells
Protocol: (§1) 1. Human 11β-HSD1-, Human 11β-HSD2- and Mouse 11β-HSD1-Gene Clonings and Establishment of Stably Expressing Cells
(§2) Human 11β-HSD1- and human 11β-HSD2-expressing vectors were transfected into human kidney-derived cell line, HEK293 cells, using a transfection reagent, jet PEI (Funakoshi). Mouse 11β-HSD1 was transfected to Chinese hamster ovary-derived cell line, CHO-K1 cells. Selection was conducted with 200-400 μg/mL of zeocine (Invitrogen) to provide stably expressing-cell clones. The stably expressing cells were suspended in buffer solution A (20 mmol/L Tris-HCl, pH 7.4, 250 mmol/L sucrose, 1 mmol/L EGTA, 1 mmol/L EDTA, 1 mmol/L MgCl2), sonicated, and then stored at −80° C.
(§3) 2. Assay of Enzyme Inhibitory Activity
(§4) An enzymatic reaction was conducted using a polystyrene 96-well plate. Each well was added with 1 μL of a test agent dissolved in DMSO and then diluted (0.003 to 3 mmol/L), and further added with 10 μL of cell lysate diluted to a concentration of 0.1 mg/mL to 0.4 mg/mL. Next, 90 μL of buffer solution A containing substrate (100 nmol/L cortisone or cortisol) and coenzyme (400 μmol/L NADPH or NAD+) was added and the mixture was incubated at 37° C. for 1 hour. The enzymatic reaction was stopped by treating at 95° C. for 3 minutes. Cortisol that was present in the reaction solution was determined by a competitive ELISA shown below.
(§5) Anti-rabbit IgG antibody (Chemi-con) diluted to 2 μg/mL with carbonate buffer solution (pH 9.6) was added in 100 μL each to a 96-well immuno plate (Nunc) and immobilized by an incubation at 4° C. overnight. […] After washed three times with buffer solution B containing 0.05% Tween 20, the plates were allowed to develop color by adding 100 μL, of color reagent, TMB (Moss). The color reaction was stopped by 25 μL of 1 mol/L sulfuric acid and the absorbance was determined at 450 nm with a microplate reader (Molecular Device, VersaMax).

mouse 11β-HSD1 = target: T2, mouse 11β-HSD1 (Mus musculus, UniProt P50172); assay: Enzyme inhibitory activity assay, lysate of CHO-K1 cells stably expressing mouse 11β-HSD1, cortisol by competitive ELISA; assay type: biochemical; conditions: Table 2; cell lysate, 100 nmol/L cortisone, NADPH, 37° C. 1 hour; read-out: in vitro assay (IC50 uM) m HSD1
T2 construct: expressed in transfected cells
Protocol: as §1, §2, §3, §4, §5

T1 sequence (P28845 whole entry): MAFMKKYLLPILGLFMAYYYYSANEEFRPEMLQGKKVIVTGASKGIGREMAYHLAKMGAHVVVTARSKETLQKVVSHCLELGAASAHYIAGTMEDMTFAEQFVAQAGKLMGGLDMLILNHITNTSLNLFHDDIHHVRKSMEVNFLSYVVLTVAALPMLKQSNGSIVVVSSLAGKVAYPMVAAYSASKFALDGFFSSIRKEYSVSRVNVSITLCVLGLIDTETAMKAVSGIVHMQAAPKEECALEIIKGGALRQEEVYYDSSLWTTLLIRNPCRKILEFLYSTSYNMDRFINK
T2 sequence (P50172 whole entry): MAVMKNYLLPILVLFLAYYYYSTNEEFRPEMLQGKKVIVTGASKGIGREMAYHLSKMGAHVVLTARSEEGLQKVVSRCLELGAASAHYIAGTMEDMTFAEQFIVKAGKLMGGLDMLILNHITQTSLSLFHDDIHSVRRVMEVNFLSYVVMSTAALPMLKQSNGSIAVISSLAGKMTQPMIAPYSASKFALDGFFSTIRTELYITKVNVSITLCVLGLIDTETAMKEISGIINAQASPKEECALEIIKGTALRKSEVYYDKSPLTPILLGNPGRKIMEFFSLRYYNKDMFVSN

Row | Compound | IC50 (human 11β-HSD1) | IC50 (mouse 11β-HSD1)
1 | CC1(C)C(=O)N([C@H]2C3CC4CC2C[C@](Cl)(C4)C3)C1c1cccc2ccccc12 (stereo partly drawn) [Example 5, trans-1-(5-chloroadamantan-2-yl)-3,3-dimethyl-4-(naphthalen-1-yl)azetidin-2-one] | 0.88 µM | 0.66 µM
2 | CC1(C)C(=O)N([C@H]2C3CC4CC2C[C@@](Cl)(C4)C3)C1c1cccc2ccccc12 (stereo partly drawn) [Example 6, cis-1-(5-chloroadamantan-2-yl)-3,3-dimethyl-4-(naphthalen-1-yl)azetidin-2-one] | 0.56 µM | 0.87 µM
3 | COC(=O)[C@]12CC3CC(C1)[C@@H](N1C(=O)C(C)(C)C1c1cccc4ccccc14)C(C3)C2 (stereo partly drawn) [Example 10, methyl trans-4-[2-(naphthalen-1-yl)-3,3-dimethyl-4-oxoazetidin-1-yl]-1-adamantane carboxylate] | 0.019 µM | 0.034 µM
4 | CC1(C)C(=O)N([C@H]2C3CC4CC2C[C@](C(=O)O)(C4)C3)C1c1cccc2ccccc12 (stereo partly drawn) [Example 11, trans-4-[2-(naphthalen-1-yl)-3,3-dimethyl-4-oxoazetidin-1-yl]-1-adamantane carboxylic acid] | 0.26 µM | 0.42 µM
5 | CC1(C)C(=O)N([C@H]2C3CC4CC2C[C@](C(N)=O)(C4)C3)C1c1cccc2ccccc12 (stereo partly drawn) [Example 12, trans-4-[2-(naphthalen-1-yl)-3,3-dimethyl-4-oxoazetidin-1-yl]-1-adamantane carboxyamide] | 0.022 µM | 0.023 µM
6 | COC(=O)[C@]12CC3CC(C1)[C@@H](N1C(=O)C(C)(C)C1c1cccc4c1OCO4)C(C3)C2 (stereo partly drawn) [Example 13, methyl trans-4-[2-(benzo[d][1,3]dioxol-4-yl)-3,3-dimethyl-4-oxoazetidin-1-yl]-1-adamantane carboxylate] | 0.051 µM | 0.24 µM
7 | CC1(C)C(=O)N([C@H]2C3CC4CC2C[C@](C(=O)O)(C4)C3)C1c1cccc2c1OCO2 (stereo partly drawn) [Example 14, trans-4-[2-(benzo[d][1,3]dioxol-4-yl)-3,3-dimethyl-4-oxoazetidin-1-yl]-1-adamantane carboxylic acid] | 0.013 µM | 0.0095 µM
8 | CC1(C)C(=O)N([C@H]2C3CC4CC2C[C@](C(N)=O)(C4)C3)C1c1cccc2c1OCO2 (stereo partly drawn) [Example 15, trans-4-[2-(benzo[d][1,3]dioxol-4-yl)-3,3-dimethyl-4-oxoazetidin-1-yl]-1-adamantane carboxyamide] | 0.031 µM | 0.031 µM
9 | CC1(C)C(=O)N([C@H]2C3CC4CC2C[C@](C(N)=O)(C4)C3)C1c1cccc2cnccc12 (stereo partly drawn) [Example 16, trans-4-[2-(isoquinolin-5-yl)-3,3-dimethyl-4-oxoazetidin-1-yl]-1-adamantane carboxyamide] | 0.41 µM | –
10 | COC(=O)[C@]12CC3CC(C1)[C@@H](N1C(=O)C(C)(C)C1c1cccc4cccnc14)C(C3)C2 (stereo partly drawn) [Example 18, methyl trans-4-[2-(quinolin-8-yl)-3,3-dimethyl-4-oxoazetidin-1-yl]-1-adamantane carboxylate] | 0.029 µM | 0.074 µM
11 | CC1(C)C(=O)N([C@H]2C3CC4CC2C[C@](C(N)=O)(C4)C3)C1c1cccc2cccnc12 (stereo partly drawn) [Example 20, trans-4-[2-(quinolin-8-yl)-3,3-dimethyl-4-oxoazetidin-1-yl]-1-adamantane carboxyamide] | 0.057 µM | 0.053 µM
12 | COC(=O)[C@]12CC3CC(C1)[C@@H](N1C(=O)C(C)(C)C1c1ccnc4ccccc14)C(C3)C2 (stereo partly drawn) [Example 49, methyl trans-4-[2-(quinolin-4-yl)-3,3-dimethyl-4-oxoazetidin-1-yl]-1-adamantane carboxylate] | 0.1 µM | –
13 | CC1(C)C(=O)N([C@H]2C3CC4CC2C[C@](C(N)=O)(C4)C3)C1c1ccnc2ccccc12 (stereo partly drawn) [Example 51, trans-4-[2-(quinolin-4-yl)-3,3-dimethyl-4-oxoazetidin-1-yl]-1-adamantane carboxyamide] | 0.08 µM | –

The remaining lines, values ahead:

Row | IC50 (human 11β-HSD1) | IC50 (mouse 11β-HSD1) | Compound
14 | 0.0054 µM | 0.054 µM | CC1(C)C(=O)N(C2C3CC4CC(C3)CC2C4)C1c1cccc(Cl)c1Cl (stereo not drawn) [Example 2, 1-(adamantan-2-yl)-3,3-dimethyl-4-(2,3-dichlorophenyl)azetidin-2-one]
15 | 0.057 µM | 0.31 µM | CC1(C)C(=O)N([C@H]2C3CC4CC2C[C@](Cl)(C4)C3)C1c1cccc(Cl)c1Cl (stereo partly drawn) [Example 3, trans-1-(5-chloroadamantan-2-yl)-3,3-dimethyl-4-(2,3-dichlorophenyl)azetidin-2-one]
16 | 0.046 µM | 0.34 µM | CC1(C)C(=O)N([C@H]2C3CC4CC2C[C@@](Cl)(C4)C3)C1c1cccc(Cl)c1Cl (stereo partly drawn) [Example 4, cis-1-(5-chloroadamantan-2-yl)-3,3-dimethyl-4-(2,3-dichlorophenyl)azetidin-2-one]
17 | 0.013 µM | 0.25 µM | COC(=O)[C@]12CC3CC(C1)[C@@H](N1C(=O)C(C)(C)C1c1cccc(Cl)c1Cl)C(C3)C2 (stereo partly drawn) [Example 7, methyl trans-4-[2-(2,3-dichlorophenyl)-3,3-dimethyl-4-oxoazetidin-1-yl]-1-adamantane carboxylate]
18 | 0.066 µM | – | CC1(C)C(=O)N([C@H]2C3CC4CC2C[C@](C(=O)O)(C4)C3)C1c1cccc(Cl)c1Cl (stereo partly drawn) [Example 8, trans-4-[2-(2,3-Dichlorophenyl)-3,3-dimethyl-4-oxoazetidin-1-yl]-1-adamantane carboxylic acid]
19 | 0.005 µM | 0.035 µM | CC1(C)C(=O)N([C@H]2C3CC4CC2C[C@](C(N)=O)(C4)C3)C1c1cccc(Cl)c1Cl (stereo partly drawn) [Example 9, trans-4-[2-(2,3-dichlorophenyl)-3,3-dimethyl-4-oxoazetidin-1-yl]-1-adamantane carboxyamide]
20 | 0.02 µM | 0.18 µM | CC1(C)C(=O)N(C2C3CC4CC(C3)CC2C4)C1c1cccc(Cl)c1F (stereo not drawn) [Example 25, 1-(adamantan-2-yl)-3,3-dimethyl-4-(3-chloro-2-fluorophenyl)azetidin-2-one]
21 | 0.029 µM | 0.16 µM | CC1(C)C(=O)N(C2C3CC4CC(C3)CC2C4)C1c1cccc(C(F)(F)F)c1F (stereo not drawn) [Example 28, 1-(adamantan-2-yl)-3,3-dimethyl-4-(2-fluoro-3-trifluoromethylphenyl)azetidin-2-one]
22 | 0.016 µM | 0.13 µM | CC1(C)C(=O)N(C2C3CC4CC(C3)CC2C4)C1c1cccc(C(F)(F)F)c1Cl (stereo not drawn) [Example 30, 1-(adamantan-2-yl)-3,3-dimethyl-4-(2-chloro-3-trifluoromethylphenyl)azetidin-2-one]
23 | 0.015 µM | 0.076 µM | CC1(C)C(=O)N(C2C3CC4CC(C3)CC2C4)C1c1cc(Cl)cc(Cl)c1 (stereo not drawn) [Example 31, 1-(adamantan-2-yl)-3,3-dimethyl-4-(3,5-dichlorophenyl)azetidin-2-one]
24 | 0.024 µM | – | CC1(C)C(=O)N(C2C3CC4CC(C3)CC2C4)C1c1ccc(F)c(C(F)(F)F)c1 (stereo not drawn) [Example 32, 1-(adamantan-2-yl)-3,3-dimethyl-4-(4-fluoro-3-trifluoromethylphenyl)azetidin-2-one]
25 | 0.012 µM | 0.031 µM | COc1cccc(C2N(C3C4CC5CC(C4)CC3C5)C(=O)C2(C)C)c1 (stereo not drawn) [Example 34, 1-(adamantan-2-yl)-3,3-dimethyl-4-(3-methoxyphenyl)azetidin-2-one]
26 | 0.091 µM | – | CC1(C)C(=O)N(C2C3CC4CC(C3)CC2C4)C1c1cc(F)c(F)c(F)c1 (stereo not drawn) [Example 36, 1-(adamantan-2-yl)-3,3-dimethyl-4-(3,4,5-trifluorophenyl)azetidin-2-one]
27 | 0.006 µM | 0.69 µM | CC1(C)C(=O)N(C2C3CC4CC(C3)CC2C4)C1c1ccc(OC(F)(F)F)cc1 (stereo not drawn) [Example 42, 1-(adamantan-2-yl)-3,3-dimethyl-4-(4-trifluoromethoxyphenyl)azetidin-2-one]
28 | 0.025 µM | – | CC1(C)C(=O)N(C2C3CC4CC(C3)CC2C4)C1c1ccc(Br)cc1 (stereo not drawn) [Example 43, 1-(adamantan-2-yl)-3,3-dimethyl-4-(4-bromophenyl)azetidin-2-one]
29 | 0.0081 µM | 0.0035 µM | CC1(C)C(=O)N(C2C3CC4CC(C3)CC2C4)C1c1cccc2ccccc12 (stereo not drawn) [Example 45, 1-(adamantan-2-yl)-3,3-dimethyl-4-(naphthalen-1-yl)azetidin-2-one]
30 | 0.0081 µM | 0.029 µM | CC1(C)C(=O)N([C@H]2C3CC4CC2C[C@](O)(C4)C3)C1c1cccc(Cl)c1Cl (stereo partly drawn) [Example 46, trans-1-(5-hydroxyadamantan-2-yl)-3,3-dimethyl-4-(2,3-dichlorophenyl)azetidin-2-one]
31 | 0.91 µM | – | CC1(C)C(=O)N(C2C3CC4CC(C3)CC2C4)C1c1cc(C(F)(F)F)cc(C(F)(F)F)c1 (stereo not drawn) [Example 54, 1-(adamantan-2-yl)-3,3-dimethyl-4-[3,5-bis(trifluoromethyl)phenyl]azetidin-2-one]
